Reference: patent US20070166547A1, “Use of a layer consisting of hydrophobic linear, or two-dimensional polycyclic aromatics as a barrier layer or an encapsulation and electric components constructed with a layer of this type and comprising organic polymers” (priority 2003, published 2007)

System: adenosine-sensitive receptors of thrombocytes
Experiment: ADP-induced aggregation of thrombocytes in vitro (Born method)
Assay type: cell-based, rabbit
Settings: 3 min incubation, ADP 10^−5 M
Procedure: The compounds according to the invention were studied for the effect of aggregation of thrombocytes induced by a preliminary introduction of a solution of an aggregation inductor with a competing introduction of the compounds according to the invention.
The aggregation of thrombocytes was studied by the Born method based on determination of the changes in the optical density of plasma enriched with thrombocytes after its incubation with an aggregation inductor.
Adenozinediphosphoric acid (ADP) was selected as an aggregation inductor, which in fact is an aggregation generator. Use was made of a sample (registration number 885) of the Sigma Diagnostics Company (USA) in final concentration of 10^−5 M.
The experiments were carried out on male rabbits of the “Chinchilla” breed having a mass of 2.7±0.3 kg. 18-24 hours prior to the experiment they were deprived of feed while preserving free access to water.
To obtain plasma enriched with thrombocytes, blood was taken from a cut of a marginal vein of the rabbit ear, the sample was stabilized with 3.8% of sodium citrate solution in a ratio of 9:1 and centrifuged at 200 g (1000 rev/min) for 10 minutes. The top supernatant layer enriched with thrombocytes was transferred by an automatic dropper into a silicone test tube and kept at 37° C. The plasma enriched with thrombocytes contained, on the average, […]. If this content exceeded the specified 3×10^8 blood platelets in 1 liter, this sample was diluted to the necessary concentration with plasma deprived of thrombocytes, which was obtained by centrifuging blood at 650 g during 10 minutes.
The measurements of the optical density of the samples were made on two-channel aggregometer of the “Chronolog” Company (USA). A flask containing 490 mkl of plasma rich with thrombocytes was placed in a device, into which a magnetic agitator covered with Teflon was lowered. The index of maximum amplitude of aggregation (MA) in percent of a fall of the plasma optical density under effect of the aggregation inductor was recorded. The control index MA of plasma was compared with the MA of plasma incubated for 3 minutes with different concentrations of the compounds: from 10^−3 to 10^−7 in vitro experiments or with plasma obtained 15, 30, 60 and 120 minutes after intravenous administration of different doses of the compounds in vivo experiments.
The process of aggregation of thrombocytes was recorded with the help of a computer; on the monitor screen the there were depicted curves reflecting changes of the optical density of the plasma enriched which was taken as a standard 100% compared to the optical density of the non-thrombocyte plasma taken for 0% content of thrombocytes.
Under in vitro conditions a flask was filled with blood plasma enriched with thrombocytes, to which an aggregation inductor ADP was added at a concentration of 10^−5 M, incubated for 3 minutes, and then the compounds according to the invention were introduced directly into the flask. Their action by aggregation of thrombocytes was studied after 3-minute incubation in a wide range of concentrations from 10^−3 to 10^−7 M to minimum concentration of 10^−7 M not inducing no effect of suppressing the aggregation.

Compound	MA - fall of optical density of plasma, % to the standard (10^−3 M) [%]	MA - fall of optical density of plasma, % to the standard (10^−4 M) [%]	MA - fall of optical density of plasma, % to the standard (10^−5 M) [%]	MA - drop of optical density, % compared to control (10^−6 M) [%]	MA - drop of optical density, % compared to control (10^−7 M) [%]
O=c1[nH]n([C@@H]2O[C@H](CO)[C@@H](O)[C@H]2O)c(=O)c2nccc(O)c12.[Na].[Na] [Compound 4, disodium salt of 4-hydroxy-7-(βD-ribofuranosile)pyrido[2,3-d]-6H-pyridazine-5,8-dione]	49.2 ± 2.3	50.2 ± 2.0	46.2 ± 3.1	50.6 ± 3.1	49.9 ± 3.4
O=c1[nH]n([C@@H]2O[C@H](CO)[C@@H](O)[C@H]2O)c(=O)c2ccccc12.[Na] [Compound 9, sodium salt of 2-(β-D-ribofuranosile)benzo[d]-3H-pyridazine-1,4-dione]	47.3 ± 2.0	53.1 ± 1.8	41.4 ± 3.4	49.4 ± 3.2	51.2 ± 1.7
Nc1cnc2c(=O)[nH][nH]c(=O)c2n1.[Na] [Compound 28, sodium salt of 2-amino-pyrazine[2,3-d]-6H-pyridazine-5,8-dione]	49.7 ± 2.2	48.9 ± 2.4	44.2 ± 2.7		50.4 ± 3.0
Nc1ncnc2c(=O)n([C@@H]3O[C@H](CO)[C@@H](O)[C@H]3O)[nH]c(=O)c12.[Na] [Compound 31, sodium salt of 4-amino-7-(β-D-ribofuranosile)pyrimido[4,5-d]-6H-pyridazine-5,8-dione]	44.9 ± 2.3	46.7 ± 2.2	39.9 ± 2.1	47.5 ± 1.7	49.5 ± 1.2
